Source: patent US8367658B2, “Pyrazin-2-yl-pyridin-2-yl-amine and pyrazin-2-yl-pyrimidin-4-yl-amine compounds and their use” (Cancer Research Technology Limited, priority 2007, dated 2013)
Values joined by “and” are separate entries in the source; they are usually repeats but may differ in a detail not shown here. Identical values can stand only once.

Molecular target: T1, CHK1 (Homo sapiens, UniProt O14757)
T1 sequence (O14757 1-476): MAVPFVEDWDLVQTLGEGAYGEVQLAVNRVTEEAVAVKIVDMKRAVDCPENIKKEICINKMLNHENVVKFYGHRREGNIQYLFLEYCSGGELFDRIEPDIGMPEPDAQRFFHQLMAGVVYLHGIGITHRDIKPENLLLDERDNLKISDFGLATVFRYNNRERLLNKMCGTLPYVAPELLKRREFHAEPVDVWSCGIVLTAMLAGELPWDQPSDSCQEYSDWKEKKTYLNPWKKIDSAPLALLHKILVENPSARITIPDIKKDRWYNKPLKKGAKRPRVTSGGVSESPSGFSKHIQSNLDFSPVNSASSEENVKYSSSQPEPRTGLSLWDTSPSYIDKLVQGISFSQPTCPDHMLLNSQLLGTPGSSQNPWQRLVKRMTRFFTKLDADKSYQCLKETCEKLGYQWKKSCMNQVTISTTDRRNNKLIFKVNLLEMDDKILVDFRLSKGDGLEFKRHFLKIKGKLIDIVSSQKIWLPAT
Assay: CHK1 kinase function inhibition assay (DELFIA, phosphorylation of a CDC25C peptide)
Type: biochemical
Settings: CHK1 1 nM, ATP 30 μM, 30 minutes at room temperature
Method: Measurement of Inhibition of CHK1 Kinase Function
CHK1 kinase function was measured in a DELFIA® assay in order to monitor phosphorylation of a CDC25C peptide using a specific phospho antibody.
The reaction mixture was incubated for 30 minutes at room temperature and then stopped by the addition of buffer (125 μL) containing 40 mM EDTA, 0.05% Tween 20, 0.1% BSA in TBS (10× concentrate, Sigma). An aliquot (100 μL) of the stopped reaction mixture was transferred to a black neutravidin-coated plate (Perbio) and incubated for 1 hour on a shaker (Titertek, Flow Laboratories) at room temperature. […] The plates were washed a further four times with wash buffer before the addition of enhancement solution (100 μL/well, PerkinElmer Life Sciences).

Compound	IC50
CC(C)(CO)Nc1cc(Nc2cnc(C#N)cn2)ncn1 [Compound Z-039, 5-(6-(1-Hydroxy-2-methylpropan-2-ylamino)pyrimidin-4-ylamino)pyrazine-2-carbonitrile]	≤ 1 µM and 0.1 to 1 µM
N#Cc1cnc(Nc2cc(NCC3CCCNC3)ncn2)cn1 (stereo not shown) [Compound Z-022, 5-(6-(Piperidin-3-ylmethylamino)pyrimidin-4-ylamino)pyrazine-2-carbonitrile]	≤ 1 µM and 0.1 to 1 µM
CC(Nc1cc(Nc2cnc(C#N)cn2)ncn1)C1CCNCC1 (stereo not shown) [Compound Z-032, 5-(6-(1-(Piperidin-4-yl)ethylamino)pyrimidin-4-ylamino)pyrazine-2-carbonitrile]	1 to 10 µM
COc1ccc(CCC(=O)Nc2cnc(Nc3cnc(C#N)cn3)cc2NCC2CCNCC2)cc1 [Compound Y-012, N-(6-(5-Cyanopyrazin-2-ylamino)-4-(piperidin-4-ylmethylamino)pyridin-3-yl)-3-(4-methoxyphenyl)propanamide]	1 to 10 µM
COc1ccc(CC(=O)Nc2cnc(Nc3cnc(C#N)cn3)cc2NCC2CCNCC2)cc1 [Compound Y-013, N-(6-(5-Cyanopyrazin-2-ylamino)-4-(piperidin-4-ylmethylamino)pyridin-3-yl)-2-(4-methoxyphenyl)acetamide]	1 to 10 µM
N#Cc1cnc(Nc2cc(NCC3CCNCC3)c(-c3ccc4c(c3)OCCO4)cn2)cn1 [Compound Y-134, 5-(5-(2,3-Dihydrobenzo[b][1,4]dioxin-6-yl)-4-(piperidin-4-ylmethylamino)pyridin-2-ylamino)pyrazine-2-carbonitrile]	0.1 to 1 µM
COC(=O)c1cnc(Nc2cnc(C#N)cn2)cc1NC1CC(C)(C)N(C)C(C)(C)C1 [Compound Y-024, Methyl 6-(5-cyanopyrazin-2-ylamino)-4-(1,2,2,6,6-pentamethylpiperidin-4-ylamino)nicotinate]	≤ 1 µM and 0.1 to 1 µM
CN(C)CC(=O)Nc1cnc(Nc2cnc(C#N)cn2)cc1NCC1CCNCC1 [Compound Y-010, N-(6-(5-Cyanopyrazin-2-ylamino)-4-(piperidin-4-ylmethylamino)pyridin-3-yl)-2-(dimethylamino)acetamide]	≤ 1 µM and 0.1 to 1 µM
N#Cc1cnc(Nc2cc(NCCCCO)ncn2)cn1 [Compound Z-041, 5-(6-(4-Hydroxybutylamino)pyrimidin-4-ylamino)pyrazine-2-carbonitrile]	1 to 10 µM
N#Cc1cnc(Nc2cc(NCC3CCCNC3)c(-n3ccc(C(=O)NCCO)c3)cn2)cn1 (stereo not shown) [Compound Y-066, 1-(6-(5-Cyanopyrazin-2-ylamino)-4-(piperidin-3-ylmethylamino)pyridin-3-yl)-N-(2-hydroxyethyl)-1H-pyrrole-3-carboxamide]	0.1 to 1 µM
COC(=O)c1cnc(Nc2cnc(C#N)cn2)cc1NC1CC2CCCC(C1)N2C (stereo not shown) [Compound Y-071, Methyl 6-(5-cyanopyrazin-2-ylamino)-4-(9-methyl-9-azabicyclo[3.3.1]-nonan-3-ylamino)nicotinate]	0.1 to 1 µM
COC(=O)c1cnc(Nc2cnc(C#N)cn2)cc1NC1CC2CCC(C1)N2Cc1ccccn1 (stereo not shown) [Compound Y-080, Methyl 6-(5-cyanopyrazin-2-ylamino)-4-(8-(pyridin-2-ylmethyl)-8-azabicyclo[3.2.1]octan-3-ylamino)nicotinate]	≤ 0.1 µM
N#Cc1cnc(Nc2cc(NCC[C@H](N)C(=O)Nc3ccccc3)ncn2)cn1 [Compound Z-026, (S)-2-Amino-4-(6-(5-cyanopyrazin-2-ylamino)pyrimidin-4-ylamino)-N-phenylbutanamide]	≤ 1 µM and 0.1 to 1 µM
N#Cc1cnc(Nc2cc(NCC3CCCNC3)c(-n3ccc(C(=O)O)c3)cn2)cn1 (stereo not shown) [Compound Y-065, 1-(6-(5-Cyanopyrazin-2-ylamino)-4-(piperidin-3-ylmethylamino)pyridin-3-yl)-1H-pyrrole-3-carboxylic acid]	0.1 to 1 µM
CN(CC1CCNCC1)c1cc(Nc2cnc(C#N)cn2)ncn1 [Compound Z-031, 5-(6-(Methyl(piperidin-4-ylmethyl)amino)pyrimidin-4-ylamino)pyrazine-2-carbonitrile]	1 to 10 µM
N#Cc1cnc(Nc2cc(OCC3CCOCC3)c(NC(=O)CCC3CCNCC3)cn2)cn1 [Compound Y-069, N-(6-(5-Cyanopyrazin-2-ylamino)-4-((tetrahydro-2H-pyran-4-yl)methoxy)pyridin-3-yl)-3-(piperidin-4-yl)propanamide]	1 to 10 µM
N#Cc1cnc(Nc2cc(NCC3CCNCC3)c(NC(=O)CCN3CCCCC3)cn2)cn1 [Compound Y-011, N-(6-(5-Cyanopyrazin-2-ylamino)-4-(piperidin-4-ylmethylamino)pyridin-3-yl)-3-(piperidin-1-yl)propanamide]	1 to 10 µM
N#Cc1cnc(Nc2cc(NCC3CCNCC3)c(N)cn2)cn1 [Compound Y-001, 5-(5-Amino-4-(piperidin-4-ylmethylamino)pyridin-2-ylamino)pyrazine-2-carbonitrile]	≤ 1 µM and 0.1 to 1 µM

Next, values leading:

IC50	Compound
≤ 0.1 µM	COc1ccc(-c2cnc(Nc3cnc(C#N)cn3)cc2NCC2CCNCC2)cc1 [Compound Y-126, 5-(5-(4-Methoxyphenyl)-4-(piperidin-4-ylmethylamino)pyridin-2-ylamino)pyrazine-2-carbonitrile]
≤ 0.1 µM	COC(=O)c1cnc(Nc2cnc(C#N)cn2)cc1NCC[C@H]1CNCCO1 [Compound Y-082, (S)-Methyl 6-(5-cyanopyrazin-2-ylamino)-4-(2-(morpholin-2-yl)ethylamino)nicotinate]
0.1 to 1 µM	N#Cc1cnc(Nc2cc(N[C@@H]3CCCNC3)c(-n3cccc3)cn2)cn1 [Compound Y-057, (R)-5-(4-(Piperidin-3-ylamino)-5-(1H-pyrrol-1-yl)pyridin-2-ylamino)pyrazine-2-carbonitrile]
≤ 0.1 µM	CN1CCC(Nc2cc(Nc3cnc(C#N)cn3)ncc2-c2ccccc2)CC1 [Compound Y-111, 5-(4-(1-Methylpiperidin-4-ylamino)-5-phenylpyridin-2-ylamino)pyrazine-2-carbonitrile]
≤ 0.1 µM	N#Cc1cnc(Nc2cc(NCC3CCNCC3)c(C#CCO)cn2)cn1 [Compound Y-145, 5-(5-(3-Hydroxyprop-1-ynyl)-4-(piperidin-4-ylmethylamino)pyridin-2-ylamino)pyrazine-2-carbonitrile]
≤ 0.1 µM	N#Cc1cnc(Nc2cc(NCCCN)c(N)cn2)cn1 [Compound Y-042, 5-(5-Amino-4-(3-aminopropylamino)pyridin-2-ylamino)pyrazine-2-carbonitrile]
≤ 0.1 µM	COC(=O)c1cnc(Nc2cnc(C#N)cn2)cc1NC1CCNCC1 [Compound Y-078, Methyl 6-(5-cyanopyrazin-2-ylamino)-4-(piperidin-4-ylamino)nicotinate]
≤ 0.1 µM	N#Cc1cnc(Nc2cc(NCC3CCCNC3)c(-n3ccc(CO)c3)cn2)cn1 (stereo not shown) [Compound Y-063, 5-(5-(3-(Hydroxymethyl)-1H-pyrrol-1-yl)-4-(piperidin-3-ylmethylamino)pyridin-2-ylamino)pyrazine-2-carbonitrile]
≤ 0.1 µM	N#Cc1cnc(Nc2cc(NCC3CCCNC3)c(N3CC[C@H](O)C3)cn2)cn1 (stereo partly drawn) [Compound Y-060, 5-(5-((S)-3-Hydroxypyrrolidin-1-yl)-4-(piperidin-3-ylmethylamino)pyridin-2-ylamino)pyrazine-2-carbonitrile]
≤ 0.1 µM	CN1CCC(Nc2cc(Nc3cnc(C#N)cn3)ncc2C(=O)Nc2ccccc2)CC1 [Compound Y-103, 6-(5-Cyanopyrazin-2-ylamino)-4-(1-methylpiperidin-4-ylamino)-N-phenylnicotinamide]
≤ 0.1 µM	COC(=O)c1cnc(Nc2cnc(C#N)cn2)cc1NCC1CCCCN1 (stereo not shown) [Compound Y-073, Methyl 6-(5-cyanopyrazin-2-ylamino)-4-(piperidin-2-ylmethylamino)-nicotinate]
≤ 0.1 µM	COc1cccc(NC(=O)c2cnc(Nc3cnc(C#N)cn3)cc2NCC2CCNCC2)c1 [Compound Y-096, 6-(5-Cyanopyrazin-2-ylamino)-N-(3-methoxyphenyl)-4-(piperidin-4-ylmethylamino)nicotinamide]
≤ 0.1 µM	N#Cc1cnc(Nc2cc(NCC3CCCNC3)c(N3CCC(O)C3)cn2)cn1 (stereo in doubt) [Compound Y-061, 5-(5-(3-Hydroxypyrrolidin-1-yl)-4-((R)-piperidin-3-ylmethylamino)pyridin-2-ylamino) pyrazine-2-carbonitrile]
≤ 0.1 µM	N#Cc1cnc(Nc2cc(NCC3CCNCC3)c(-c3ccc(OCCO)cc3)cn2)cn1 [Compound Y-129, 5-(5-(4-(2-hydroxyethoxy)phenyl)-4-(piperidin-4-ylmethylamino)pyridin-2-ylamino)pyrazine-2-carbonitrile]
≤ 0.1 µM	N#Cc1cnc(Nc2cc(NCC3CCCNC3)c(-n3ccc(C(=O)NCCCO)c3)cn2)cn1 (stereo not shown) [Compound Y-067, 1-(6-(5-Cyanopyrazin-2-ylamino)-4-(piperidin-3-ylmethylamino)pyridin-3-yl)-N-(3-hydroxypropyl)-1H-pyrrole-3-carboxamide]
≤ 0.1 µM	N#Cc1cnc(Nc2cc(NCC3CCCNC3)c(N)cn2)cn1 (stereo not shown) [Compound Y-041, 5-(5-Amino-4-(piperidin-3-ylmethylamino)pyridin-2-ylamino)pyrazine-2-carbonitrile]
